Earlier results in patent US20230143731A1, “NANOMATERIALS FOR TARGETED TREATMENT OF PULMONARY TISSUE” (The University of North Carolina at Chapel Hill, priority 2020, published 2023).

System: ACE
Details: with and without the C-terminal serine

Row | Substance | ACE inhibition [%]
1 | TPTQQS | 73
2 | TPTQQ [TPTQQ peptide] | 26
